Assay results taken from paper PMC12622905, “CYP71D8 and CYP82A2 catalyze the last committed step in biosynthesis of glyceollin isomers in soybean” (Plant Biotechnology, 2025).

What was measured:
[1] = target: T1, CYP82A24 (Glycine max, UniProt I1MI36); test: HPLC of glyceollin III formation, recombinant yeast microsomes; assay type: biochemical; conditions: NADPH; potassium phosphate pH 7.5; 30°C
T1 construct: gene LOC100782866; synthetic gene in pYES2 (BamHI site); recombinant yeast BJ2168 microsomes with Lotus japonicus CPR
T1 sequence (I1MI36 1-521): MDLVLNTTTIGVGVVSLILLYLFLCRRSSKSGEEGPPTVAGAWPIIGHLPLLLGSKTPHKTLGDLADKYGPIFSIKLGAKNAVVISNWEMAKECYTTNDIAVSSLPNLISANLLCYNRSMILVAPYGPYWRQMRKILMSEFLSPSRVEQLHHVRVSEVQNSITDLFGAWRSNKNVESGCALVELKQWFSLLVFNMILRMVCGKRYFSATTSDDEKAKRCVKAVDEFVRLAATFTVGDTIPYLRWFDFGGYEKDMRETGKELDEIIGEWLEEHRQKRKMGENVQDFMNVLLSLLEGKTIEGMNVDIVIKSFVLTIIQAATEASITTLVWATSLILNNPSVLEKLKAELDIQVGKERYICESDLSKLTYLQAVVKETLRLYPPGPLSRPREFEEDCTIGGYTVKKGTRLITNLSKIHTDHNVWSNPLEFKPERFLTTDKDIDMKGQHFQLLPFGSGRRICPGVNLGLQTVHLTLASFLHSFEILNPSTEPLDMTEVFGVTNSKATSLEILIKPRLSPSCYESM

[2] = target: T2, CYP71D145 (Glycine max, UniProt A0A0R0HDK6); test: HPLC of glyceollin I formation, recombinant yeast microsomes; assay type: biochemical; conditions: NADPH; potassium phosphate pH 7.5; 30°C, 5 h
T2 construct: gene GLYMA_11G062500; full ORF in pYES2.1 TOPO; recombinant yeast BJ2168 microsomes with Lotus japonicus CPR
T2 sequence (A0A0R0HDK6 1-505): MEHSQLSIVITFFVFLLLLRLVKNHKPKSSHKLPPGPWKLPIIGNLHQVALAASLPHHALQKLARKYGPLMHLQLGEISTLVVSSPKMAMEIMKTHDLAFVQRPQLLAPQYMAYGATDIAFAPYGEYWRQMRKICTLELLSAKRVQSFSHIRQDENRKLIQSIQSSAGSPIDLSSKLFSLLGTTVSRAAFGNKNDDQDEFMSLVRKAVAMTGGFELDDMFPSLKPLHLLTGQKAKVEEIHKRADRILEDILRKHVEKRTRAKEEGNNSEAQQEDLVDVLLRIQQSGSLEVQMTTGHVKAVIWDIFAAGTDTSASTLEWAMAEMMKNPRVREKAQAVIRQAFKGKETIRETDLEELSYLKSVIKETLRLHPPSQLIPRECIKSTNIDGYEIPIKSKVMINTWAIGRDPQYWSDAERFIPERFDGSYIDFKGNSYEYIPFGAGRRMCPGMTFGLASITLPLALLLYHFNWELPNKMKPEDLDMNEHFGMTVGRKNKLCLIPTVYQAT

[3] = target: T3, CYP71D106 (Glycine max, UniProt K7K4H7); test: as above; assay type: biochemical; conditions: NADPH; potassium phosphate pH 7.5; 30°C, 5 h
T3 construct: gene LOC100817439; synthetic gene in pYES2 (BamHI site); recombinant yeast BJ2168 microsomes with Lotus japonicus CPR
T3 sequence (K7K4H7 1-503): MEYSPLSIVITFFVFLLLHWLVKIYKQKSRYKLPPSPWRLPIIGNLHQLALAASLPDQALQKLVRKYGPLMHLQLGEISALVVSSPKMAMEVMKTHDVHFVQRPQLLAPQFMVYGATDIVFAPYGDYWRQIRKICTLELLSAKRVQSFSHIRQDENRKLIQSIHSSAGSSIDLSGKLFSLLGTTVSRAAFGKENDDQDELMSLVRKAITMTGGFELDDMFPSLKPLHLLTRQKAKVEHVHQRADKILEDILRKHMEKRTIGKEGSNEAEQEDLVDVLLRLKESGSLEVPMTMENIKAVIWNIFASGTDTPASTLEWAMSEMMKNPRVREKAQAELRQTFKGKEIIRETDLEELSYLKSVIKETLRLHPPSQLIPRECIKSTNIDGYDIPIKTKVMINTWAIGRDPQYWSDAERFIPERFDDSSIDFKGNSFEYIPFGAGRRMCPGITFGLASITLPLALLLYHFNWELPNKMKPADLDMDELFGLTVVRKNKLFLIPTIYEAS

[4] = substrate: CC(C)=CCc1cc2c(cc1O)OC[C@@]1(O)c3ccc(O)cc3O[C@@H]21; test: HPLC of glyceollin III formation, recombinant yeast microsomes, Michaelis-Menten fit; assay type: biochemical, Glycine max; conditions: 2 mM NADPH, 0.1 M potassium phosphate pH 7.5, 10% sucrose, 14 mM 2-mercaptoethanol, 30°C, 20 min
[5] = substrate: CC(C)=CCc1c(O)ccc2c1OC[C@@]1(O)c3ccc(O)cc3O[C@@H]21; test: HPLC of glyceollin I formation, recombinant yeast microsomes, Michaelis-Menten fit; assay type: biochemical, Glycine max; conditions: 2 mM NADPH, 0.1 M potassium phosphate pH 7.5, 10% sucrose, 14 mM 2-mercaptoethanol, 30°C, 20 min

Molecule: CC(C)=CCc1cc2c(cc1O)OC[C@@]1(O)c3ccc(O)cc3O[C@@H]21 [2DG, 2-dimethylallylglycinol]
- HPLC of glyceollin III formation, recombinant yeast microsomes [1]: CYP82A24 also exhibited GS3 activity with 2-dimethylallylglycinol

Molecule: CC(C)=CCc1c(O)ccc2c1OC[C@@]1(O)c3ccc(O)cc3O[C@@H]21 [4DG, 4-dimethylallylglycinol]
- HPLC of glyceollin I formation, recombinant yeast microsomes [2]: CYP71D145 produced only glyceollin I in the enzyme assay
- HPLC of glyceollin I formation, recombinant yeast microsomes [3]: CYP71D106 yielded glyceollin I and two other unknown compounds (P1 and P2)

B1: CYP82A2 (GS3, glyceollin III synthase) (Glycine max) (protein)
chain: MELVLNSTTIGVGVVSLILLLYLFLRGGSWKSGEEGPPTVAGAWPIIGHLPLLLGSKTPHKTLGDLADKYGPIFSIKIGAKNAVVVSNWEMAKECYTTNDIAVSSLPDLISANLLCYNRSMIVVAPYGPYWRQLRKILMSEFLSPSRVEQLHHVRVSEVQSSITELFRDWRSNKNVQSGFATVELKQWFSLLVFNMILRMVCGKRYFSASTSDDEKANRCVKAVDEFVRLAATFTVGDAIPYLRWFDFGGYENDMRETGKELDEIIGEWLDEHRQKRKMGENVQDLMSVLLSLLEGKTIEGMNVDIVIKSFVLTVIQAGTEASITTLIWATSLILNNPSVLEKLKAELDIQVGKERYICESDLSKLTYLQAVVKETLRLYPPAPLSRPREFEEDCTIGGYTVKKGTRLITNLSKIHTDHNVWSNPLEFKPERFLTTDKDIDMKGQHFQLLPFGGGRRICPGINLGLQTVRLTLASFLHSFEILNPSTEPLDMTEVFRATNTKATPLEILIKPRLSPSCYESI
notes: full ORF in pYES2.1 TOPO; yeast BJ2168 microsomes co-expressing Lotus japonicus CPR
- Km [4]: 9.5 ± 1.0 µM

B2: CYP71D8 (GS1, glyceollin I synthase) (Glycine max) (protein)
chain: MEYSPLSIVITFFVFLLLHWLVKTYKQKSSHKLPPGPWRLPIIGNLHQLALAASLPDQALQKLVRKYGPLMHLQLGEISTLVVSSPKMAMEMMKTHDVHFVQRPQLLAPQFMVYGATDIAFAPYGDYWRQIRKICTLELLSAKRVQSFSHIRQDENKKLIQSIHSSAGSPIDLSGKLFSLLGTTVSRAAFGKENDDQDEFMSLVRKAITMTGGFEVDDMFPSLKPLHLLTRQKAKVEHVHQRADKILEDILRKHMEKRTRVKEGNGSEAEQEDLVDVLLRLKESGSLEVPMTMENIKAVIWNIFAAGTDTSASTLEWAMSEMMKNPKVKEKAQAELRQIFKGKEIIRETDLEELSYLKSVIKETLRLHPPSQLIPRECIISTNIDGYEIPIKTKVMINTWAIGRDPQYWSDADRFIPERFNDSSIDFKGNSFEYIPFGAGRRMCPGMTFGLASITLPLALLLYHFNWELPNKMKPEDLDMDEHFGMTVARKNKLFLIPTVYEAS
notes: as for B1
- Km [5]: 1.3 ± 0.2 µM
